41 compounds from patent publication US20220324865A1 (Bayer Aktiengesellschaft, priority 2018, published 2022) can be followed below.

pIC50: −log10 of the molar value. Where a name gives a salt, the structure may show the parent alone.

This assay addresses T1, human EP3 receptor (Homo sapiens, UniProt P43115).
T1 construct: expressed in transfected cells; host or cells: CHO K1 (Chinese Hamster Ovary), stably co-transfected with Galpha16 and mitochondrial clytin
T1 sequence (P43115 1-390): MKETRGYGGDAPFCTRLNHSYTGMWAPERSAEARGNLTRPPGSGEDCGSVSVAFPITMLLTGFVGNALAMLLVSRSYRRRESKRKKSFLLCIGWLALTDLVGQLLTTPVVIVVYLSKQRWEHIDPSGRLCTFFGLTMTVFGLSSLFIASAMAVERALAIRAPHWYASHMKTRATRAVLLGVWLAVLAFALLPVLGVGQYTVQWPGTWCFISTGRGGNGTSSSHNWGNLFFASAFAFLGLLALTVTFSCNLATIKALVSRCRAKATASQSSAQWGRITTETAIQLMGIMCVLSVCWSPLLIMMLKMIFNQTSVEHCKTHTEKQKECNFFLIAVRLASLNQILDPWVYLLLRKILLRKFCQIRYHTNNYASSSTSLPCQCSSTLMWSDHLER
The assay can be described thus: Cellular in vitro assay for determining EP3 receptor activity (human EP3 cell line, sulprostone-stimulated calcium luminescence). In kind it is cell-based. The conditions noted are these: CHO cells expressing human EP3 and mitochondrial Clytin; antagonist mode, sulprostone at EC50; read-out: EP3 CHO mtCLY ANTAG IC50. The method, boiled down: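 Antagonist activity was measured as inhibition of the luminescent calcium signal elicited by EC50 sulprostone, following 10 min compound pretreatment. The cell line was recombinant CHO K1 co-expressing human EP3, Gα16 and the photoprotein Clytin, reconstituted with coelenterazine.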
For `Cc1ccc(-c2cn3nc(C(=O)N[C@H](C)C4CC4)c(C(F)(F)F)c3c(=O)[nH]2)cc1Cl` [6-172], the negative-log IC50 (pIC50) is 8.77.

Turning to `Cc1cc(-c2cn3nc(C(=O)NCC(O)C(F)(F)F)c(C4CC4)c3c(=O)[nH]2)ccc1Cl` (single isomer, unassigned) [6-313], the pIC50 is 8.78.

On to `O=C(NC1CCN(C2CC2)C1)c1nn2cc(-c3ccc4ccccc4c3)[nH]c(=O)c2c1C(F)(F)F` (single isomer, unassigned) [6-500], for which the negative-log IC50 (pIC50) was 8.17.

With `Cc1ccc(-c2cn3nc(C(=O)NCC(O)C(F)(F)F)c(C)c3c(=O)[nH]2)cc1F` (racemic) [6-409], the pIC50 was 8.15.

On to `Cc1cc(-c2cn3nc(C(=O)NCC(C)(N)C(F)(F)F)c(C4CC4)c3c(=O)[nH]2)ccc1Cl` (single isomer, unassigned) [6-320], for which the pIC50 was 8.87.

With `O=C(N[C@H](CN1CC(F)C1)C1CC1)c1nn2cc(-c3ccc4ccccc4c3)[nH]c(=O)c2c1C(F)(F)F` [6-513], the pIC50 is 8.15.

In the case of `CC(C)C(NC(=O)c1cc2c(=O)[nH]c(-c3ccc4ccccc4c3)cn2n1)c1ccc(F)cc1` (centres unmarked) [Example 2-48, N-[1-(4-Fluorophenyl)-2-methylpropyl]-6-(2-naphthyl)-4-oxo-4,5-dihydropyrazolo[1,5-a]pyrazine-2-carboxamide], the pIC50 is 8.44.

Regarding `CC(NC(=O)c1cc2c(=O)[nH]c(-c3ccc4ccccc4c3)cn2n1)c1ccccc1` (centres unmarked) [Example 2-1, 6-(2-Naphthyl)-4-oxo-N-(1-phenylethyl)-5H-pyrazolo[1,5-a]pyrazine-2-carboxamide], the pIC50 is 8.68.

For `CC(NC(=O)c1nn2cc(-c3ccc4ccccc4c3)[nH]c(=O)c2c1C(F)(F)F)c1cnc(OCC(F)(F)F)cn1` (centres unmarked) [Example 1-117, 6-(2-Naphthyl)-4-oxo-N-[1-[5-(2,2,2-trifluoroethoxy)pyrazin-2-yl]ethyl]-3-(trifluoromethyl)-5H-pyrazolo[1,5-a]pyrazine-2-carboxamide], the negative logarithm of the IC50 (pIC50) was 8.86.

For `Cc1c(C(=O)NC2(c3ccc(C#N)cc3)CC2)nn2c(C)c(-c3ccc4ccccc4c3)[nH]c(=O)c12` [Example 3-27, N-[1-(4-Cyanophenyl)cyclopropyl]-3,7-dimethyl-6-(naphthalen-2-yl)-4-oxo-4,5-dihydropyrazolo[1,5-a]pyrazine-2-carboxamide], the pIC50 is 8.68.

In the case of `Cc1c(C(=O)NC(C)c2ccc3c(c2)OCCO3)nn2c(C)c(-c3ccc4ccccc4c3)[nH]c(=O)c12` (centres unmarked) [Example 3-31, N-[1-(2,3-Dihydro-1,4-benzodioxin-6-yl)ethyl]-3,7-dimethyl-6-(2-naphthyl)-4-oxo-5H-pyrazolo[1,5-a]pyrazine-2-carboxamide], the pIC50 was 8.35.

Consider `COCc1c(C(=O)N[C@@H](c2ccc(F)cc2)C(F)(F)CO)nn2cc(-c3ccc(C)c(Cl)c3)[nH]c(=O)c12` [6-626], for which the pIC50 was 8.99.

With `CCn1cc(CNC(=O)c2nn3cc(-c4cnc5cccc(C)c5c4)[nH]c(=O)c3c2C(C)C)c(C)n1` [Example 4-36, N-[(1-Ethyl-3-methyl-1H-pyrazol-4-yl)methyl]-6-(5-methylquinolin-3-yl)-4-oxo-3-(propan-2-yl)-4,5-dihydropyrazolo[1,5-a]pyrazine-2-carboxamide], the negative logarithm of the IC50 (pIC50) was 9.11.

In the case of `CC(NC(=O)c1cc2c(=O)[nH]c(-c3ccc4ccccc4c3)cn2n1)c1ccc(C(C)(C)C)cc1` (centres unmarked) [Example 2-40, N-[1-(4-tert.-Butylphenyl)ethyl]-6-(2-naphthyl)-4-oxo-4,5-dihydropyrazolo[1,5-a]pyrazine-2-carboxamide], the pIC50 is 8.50.

For the compound `O=C(N[C@H](CCO)c1ccc(F)cc1)c1nn2cc(-c3ccc(Cl)cc3)[nH]c(=O)c2c1C1CC1` [6-674], the pIC50 was 9.10.

Regarding `O=C(N[C@@H](c1ccc(F)cc1)C(F)(F)CO)c1nn2cc(-c3ccc(C(F)(F)F)c(F)c3F)[nH]c(=O)c2c1C1CC1` [6-601], the pIC50 was 8.37.

Regarding `Cc1cc(-c2cn3nc(C(=O)N[C@H]4CCN(C5CC5)C4)c(C4CC4)c3c(=O)[nH]2)ccc1Cl` (single isomer, unassigned) [6-323], the pIC50 is 8.48.

In the case of `Cc1ccc([C@H](C)NC(=O)c2nn3cc(-c4cnc5cccc(C)c5c4)[nH]c(=O)c3c2C(C)C)cc1` [Example 4-56, N-[(7S)-1-(4-Methylphenyl)ethyl]-6-(5-methylquinolin-3-yl)-4-oxo-3-(propan-2-yl)-4,5-dihydropyrazolo[1,5-a]pyrazine-2-carboxamide], the negative logarithm of the IC50 (pIC50) is 8.40.

Turning to `Cc1cccc2ncc(-c3cn4nc(C(=O)N[C@H](CCO)c5ccc(F)cc5)cc4c(=O)[nH]3)cc12` [Example 1-113, N-[(1R)-1-(4-Fluorophenyl)-3-hydroxypropyl]-6-(5-methylquinolin-3-yl)-4-oxo-4,5-dihydropyrazolo[1,5-a]pyrazine-2-carboxamide], the pIC50 was 8.42.

On to `CC(CN1CCOCC1)NC(=O)c1nn2cc(-c3ccc4ccccc4c3)[nH]c(=O)c2c1C(F)(F)F` (racemic) [6-522], for which the pIC50 was 7.77.

For `Cc1ccc(-c2cn3nc(C(=O)NC4(c5ccc(F)cc5)CCN(C)C4)cc3c(=O)[nH]2)cc1C` (single isomer, unassigned) [6-363], the negative logarithm of the IC50 (pIC50) was 7.34.

On to `COc1ccc([C@H](CCO)NC(=O)c2nn3cc(-c4ccc5ccccc5c4)[nH]c(=O)c3c2C#N)cc1` [Example 3-63, 3-Cyano-N-[(1S)-3-hydroxy-1-(4-methoxyphenyl)propyl]-6-(naphthalen-2-yl)-4-oxo-4,5-dihydropyrazolo[1,5-a]pyrazine-2-carboxamide], for which the pIC50 was 8.41.

As for `Cc1ccc(-c2cn3nc(C(=O)NC4(c5ccc(F)cc5)CN(C)C4)c(C4CCC4)c3c(=O)[nH]2)cc1F` [6-574], the pIC50 is 8.82.

On to `Cc1ccc(-c2cn3nc(C(=O)NCC(O)(C(F)(F)F)C(F)(F)F)c(C4CC4)c3c(=O)[nH]2)cc1F` [6-403], for which the negative logarithm of the IC50 (pIC50) is 9.16.

As for `Cc1cccc2ncc(-c3cn4nc(C(=O)NC5(c6ccc(C#N)cc6)CC5)c(C(C)C)c4c(=O)[nH]3)cc12` [Example 4-3, N-[1-(4-Cyanophenyl)cyclopropyl]-6-(5-methylquinolin-3-yl)-4-oxo-3-(propan-2-yl)-4,5-dihydropyrazolo[1,5-a]pyrazine-2-carboxamide], the pIC50 is 8.78.

As to `COc1ccc(C(CCO)NC(=O)c2cc3c(=O)[nH]c(-c4ccc(C(F)(F)F)c(C)c4)cn3n2)cc1` (centres unmarked) [6-31], the pIC50 was 8.10.

Turning to `Cc1ccc(-c2cn3nc(C(=O)NC4(c5ccc(F)cc5)CC4)cc3c(=O)[nH]2)cc1C` [6-24], the negative-log IC50 (pIC50) was 8.69.

For the compound `COC[C@@H](NC(=O)c1cc2c(=O)[nH]c(-c3ccc4ccccc4c3)cn2n1)c1ccccc1` [6-51], the negative-log IC50 (pIC50) is 8.58.

For the compound `Cc1ccc(-c2cn3nc(C(=O)NCC(O)(C(F)(F)F)C(F)(F)F)c(C4CC4)c3c(=O)[nH]2)cc1Cl` [6-261], the negative-log IC50 (pIC50) was 8.57.

As for `COc1ccc([C@@H](C)NC(=O)c2nn3cc(-c4ccc(Cl)c(F)c4)[nH]c(=O)c3c2C2CC2)cn1` [6-87], the pIC50 is 9.03.

As to `Cc1ccc(-c2cn3nc(C(=O)NC4CCN(CC(F)F)C4)c(C4CC4)c3c(=O)[nH]2)cc1C` (centres unmarked) [6-453], the negative-log IC50 (pIC50) was 8.95.

Consider `COc1cc(-c2cn3nc(C(=O)N[C@@H](C)C4CC4)c(C4CC4)c3c(=O)[nH]2)ccc1Cl` [6-481], for which the pIC50 is 9.24.

In the case of `CCc1ccc(C(C)NC(=O)c2nn3cc(-c4cnc5cccc(C)c5c4)[nH]c(=O)c3c2C(C)C)cc1` (centres unmarked) [Example 4-9, N-[1-(4-Ethylphenyl)ethyl]-3-isopropyl-6-(5-methyl-3-quinolyl)-4-oxo-5H-pyrazolo[1,5-a]pyrazine-2-carboxamide], the pIC50 was 8.43.

`Cc1ccc(-c2[nH]c(=O)c3c(C4CC4)c(C(=O)N[C@@H](c4ccc(F)cc4)C(C)(C)O)nn3c2C#N)cc1C` [6-617]: the pIC50 was 8.12.

Take `Cc1ccc(-c2cn3nc(C(=O)N[C@@H](c4ccc(F)cc4)[C@@H](O)C(F)(F)F)c(C4CC4)c3c(=O)[nH]2)cc1Cl` [6-273]: the pIC50 is 8.96.

For `Cc1ccc(-c2cn3nc(C(=O)N[C@H](CCO)c4ccc(F)cc4)cc3c(=O)[nH]2)cc1C` [Example 1-39, 6-(3,4-Dimethylphenyl)-N-[(1R)-1-(4-fluorophenyl)-3-hydroxpropyl]-4-oxo-4,5-dihydropyrazolo-[1,5-a]pyrazine-2-carboxamide], the pIC50 is 9.58.

Regarding `O=C(N[C@H](CN1CCOCC1)c1ccccc1)c1cc2c(=O)[nH]c(-c3ccc4ccccc4c3)cn2n1` [Example 1-7, N-[(1S)-2-(Morpholin-4-yl)-1-phenylethyl]-6-(naphthalen-2-yl)-4-oxo-4,5-dihydropyrazolo[1,5-a]-pyrazine-2-carboxamide formic acid salt], the negative logarithm of the IC50 (pIC50) is 8.77.

For `CC[C@@H](NC(=O)c1nn2cc(-c3cnc4cccc(C)c4c3)[nH]c(=O)c2c1C(C)C)c1ccccc1` [Example 4-49, 6-(5-Methylquinolin-3-yl)-4-oxo-N-[(1R)-1-phenylpropyl]-3-(propan-2-yl)-4,5-dihydropyrazolo[1,5-a]pyrazine-2-carboxamide], the negative-log IC50 (pIC50) is 8.40.

As to `Cc1ccc(-c2cn3nc(C(=O)NC(C)CN4CCOCC4)c(C4CC4)c3c(=O)[nH]2)cc1C` (racemic) [6-450], the pIC50 was 7.92.

As to `Cc1cc(-c2cn3nc(C(=O)NC4(c5ccc(F)cc5)CN(CC(F)F)C4)c(C4CC4)c3c(=O)[nH]2)ccc1Cl` [6-340], the pIC50 is 8.99.

`COc1ccc(CNC(=O)c2cc3c(=O)[nH]c(-c4ccc(C)c(Cl)c4)cn3n2)cc1OC` [6-80]: the pIC50 is 8.66.

Usually pIC50 stands for −log10 of the IC50, conventionally taken in molar units.
